Reference: patent publication US11883423B2, “Nucleobase analogue derivatives and their applications” (BOARD OF REGENTS, THE UNIVERSITY OF TEXAS SYSTEM, priority 2014, dated 2024)
Where a name gives a salt, the structure may show the parent alone.

Tests used:
BxPC-3 cells [1] = experiment: Cytotoxicity of Gem-ARA, MTT assay, BxPC-3 cells; type: cell-based, human; settings: Homo sapiens, up to 72 h, mean ± SD (n>3)
Protocol: (§1) To understand the effect of the omega-3 polyunsaturated fatty acid nature of the DHA (i.e., the docosahexaedecanoyl group) in the Gem-DHA on its cytotoxicity against tumor cells, gemcitabine was also conjugated to arachidonic acid, an omega-6 polyunsaturated fatty acid, to synthesize 4-(N)-arachidonyl gemcitabine (Gem-ARA) (FIG. 4). Human pancreatic cancer cells (MIA PaCa-2 or BxPC-3) were seeded (3,000/well) in 96-well plates. After overnight incubation, cells were treated with various concentrations of gemcitabine HCl or Gem-ARA at 37° C., 5% CO2 for up to 72 h. Gemcitabine HCl was dissolved in phosphate buffered saline (PBS, pH 7.4, 10 mM), and Gem-ARA was dissolved in DMSO. The maximum amount of DMSO added per well was 0.9 μL, which was found non-toxic. The number of viable cells after the incubation was determined using an MTT assay as described above. The 50% inhibition concentration (IC50) values were estimated using GraphPad prism 5 parameters curve fittings.

Panc-1-Luc tumors [2] = experiment: Orthotopic Panc-1-Luc tumors in nude mice: gemcitabine HCl versus mixture with DHA; type: in vivo; settings: about 0.11 mmole/kg each, twice a week, 10 times, started 2 weeks after implantation
Protocol: The doses of both gemcitabine HCl (˜33.7 mg/kg) and DHA (˜35.3 mg/kg) were about 0.11 mmole/kg. Mice were sacrificed in the 8th week after tumor implantation, and the tumors were excised and weighed. The doses were based on the average weight of mice in the same group on the day of injection, and were adjusted only if the weight of an individual mouse was above or below 10% of the average weight.

Panc-02 tumor cells = experiment: Cytotoxicity after 4 h co-incubation, MTT test; type: cell-based, mouse; settings: Panc-02 cells, at concentrations of more than 80 μM
Protocol: The mechanisms underlying the cytotoxicity of the Gem-DHA may be different from that of gemcitabine. For example, in cell culture studies, Panc-02 cells were seeded into 96-well plates (1,500 cells per well) and incubated at 37° C., 5% CO2 for 24 h. They were then co-incubated with various concentrations of Gem-DHA, gemcitabine HCl alone, or DHA alone for 4 h, and cell viability was determined using an MTT test.

Panc-02 cells = experiment: Anti-proliferative activity, MTT assay, Panc-02 cells; type: cell-based; settings: Mus musculus, Panc02, 24 h
Protocol: (§2) The anti-proliferative activity of Gem-DHA was evaluated in Panc-02, TC-1, Panc-1-Luc, and BxPC-3 cell lines. For Panc-02 and TC-1 cells, cells (1,500/well for Panc-02 and 3,000/well for TC-1) were seeded in 96-well plates and incubated at 37° C. and 5% CO2 overnight. The cells were then treated with various concentrations of Gem-DHA or other compounds for 24 h. For BxPC-3 and Panc-1-Luc cells, 3,000 and 1,000 cells/well were used, respectively, and cells were co-incubated with the Gem-DHA for 72 h. Cell viability was determined using an MTT assay as previously described (Naguib YW et al. Mol Pharm. 2014, 11(4), 1239-1249). Gemcitabine HCl was dissolved in cell culture medium, whereas Gem-DHA and DHA were dissolved in dimethylsulfoxide (DMSO). The values of IC50 were calculated using GraphPad Prism (GraphPad software, Inc., La Jolla, CA).

[3] = test system: advanced pancreatic cancer; settings: cited from earlier work
BxPC-3 cells [4] = experiment: Anti-proliferative activity, MTT assay, BxPC-3 cells; type: cell-based, human; settings: Homo sapiens; BxPC-3 cells, 72 h
Protocol: as §2

Panc-1-Luc tumors [5] = experiment: Antitumor activity against orthotopic Panc-1-Luc tumors in nude mice, with tumor histology; type: in vivo
Excerpt: Nude mice with intrapancreatically injected Panc-1-Luc human pancreatic cancer cells were used as a mouse model of pancreatic cancer. The National Institutes of Health guidelines for animal use and care were followed Animal protocols were approved by the Institutional Animal Care and Use Committee at the University of Texas at Austin. Panc-1-Luc cells (Muniz VP et al. Mol Cancer Res. 2011, 9(7), 867-877) were implanted orthotopically by injecting 1×10^6 cells into (the tail of) the pancreas.
Panc-1-Luc cell suspension was prepared at a concentration of 2×10^7 per ml in a 1:1 (v/v) mixture of DMEM and Matrigel. Tumor cells were then injected into the pancreas of male athymic nude mice (6-8 weeks, Charles River Laboratories, Wilmington, Mass.) following a surgical procedure (Raut CP et al. Cancer Biol Ther. 2004, 3(12), 1217-1224; Bruns CJ et al. Neoplasia. 1999, 1(1), 50-62). Briefly, after mice were anesthetized using isoflurane, the skin and peritoneum were cut open about 1 cm in length using sterile surgical scalpels. The pancreas was pulled out, and 50 μL of the cell suspension were injected slowly until a small bleb was formed. After the needle was withdrawn, a small cotton plug was applied for 10 s. The pancreas was returned back, the peritoneum was sutured with Monocryl™ bioresorbable sutures (Ethicon, Somerville, N.J.), and the skin was then closed using surgical clips. Mice were s.c. injected with buprenorphine (0.1 mg/kg) as a pain killer and were left to heal for one week. Tumor progress was monitored using an IVIS™ Spectrum imaging system (Caliper, Hopkinton, MA). For IVIS imaging, each mouse was i.p. injected with a luciferin solution (15 mg/ml) at a dose of 0.15 mg/g body weight in sterile DPBS, anesthetized with isoflurane, and imaged 10 min after luciferin injection. Four weeks after tumor implantation, mice with tumors were randomized into 3 groups (n=5-7) and intraperitoneally injected (i.p) with Gem-DHA (50 mg/kg, ˜0.087 mmole/kg), gemcitabine HCl (26.1 mg/kg, ˜0.087 mmole/kg), or left untreated. Gem-DHA was in a Tween 80/ethanol/water solution with 5% (w/v) of mannitol, and gemcitabine HCl was in sterile mannitol solution (5%, w/v). Treatments were repeated twice a week for a total 7 doses. Thirty days after the first treatment, mice were sacrificed and tumors were dissected from the pancreas, weighed, and fixed in formalin. The doses were based on the average weight of mice in the same group on the day of injection, and were adjusted only if the weight of an individual mouse was above or below 10% of the average weight.
Tumor tissues were sectioned and stained in the Histology and Tissue Analysis Core at Dell Pediatric Research Institute at the University of Texas at Austin or in the Department of
Molecular Carcinogenesis at the University of Texas M.D. Anderson Cancer Center at Science Park (Smithville, Texas) with hematoxylin & eosin (H&E), antibodies against cleaved lamin-A (apoptosis marker), CD-31 (angiogenesis marker), or Ki-67 (proliferation marker). Slides were then scanned, and images were taken using the ScanScope XT (Aperio Technologies, Vista, CA). […] In addition, several areas of necrosis can also be seen in the centers of the tumors. […] Several pyknotic cells with condensed chromatin can also be seen in tumors in mice that were treated with Gem-DHA.

[6] = biological target: deoxycytidinedeaminases (dCDA) (Homo sapiens, UniProt P32320); settings: upon injection, extracellularly and intracellularly; cited from earlier work
deoxycytidinedeaminases (dCDA), sequence (P32320 whole entry): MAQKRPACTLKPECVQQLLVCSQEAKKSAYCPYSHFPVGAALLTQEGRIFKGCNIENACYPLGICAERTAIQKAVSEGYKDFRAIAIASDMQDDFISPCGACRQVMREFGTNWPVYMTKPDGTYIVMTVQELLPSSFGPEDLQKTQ

MIA PaCa-2 cells = experiment: Cytotoxicity of Gem-ARA, MTT assay, MIA PaCa-2 cells; type: cell-based, human; settings: Homo sapiens, up to 72 h, mean ± SD (n>3)
Protocol: as §1

[7] = parameters: species or system BALB/c mice; settings: female, BALB/c, mouse, in vivo, iv, 75 mg/kg, 1 h
Protocol: The biodistribution of Gem-DHA was further evaluated in healthy BALB/c mice. Briefly, female BALB/c mice (Charles River, 14-16 weeks, n=3) were injected via the tail vein with Gem-DHA in a Tween 80/ethanol/water solution containing 5% (w/v) mannitol at a dose of 75 mg/kg. After 1 h, mice were euthanized to collect pancreas, lung, spleen, liver, heart, and kidneys. Gem-DHA was extracted from the samples and analyzed using HPLC. As a control, mice (n=3) were also injected with gemcitabine HCl (75 mg/kg) in 5% (w/v) mannitol solution and euthanized 1 h later to collect their pancreas. Gemcitabine was extracted using the following method. Briefly, once the pancreas was collected, it was weighed, placed into 0.25 ml of PBS containing 40 μg of tetrahydrouridine (a deoxycytidine deaminase inhibitor) and homogenized using a bead beater. Deoxyuridine (dU, 20 μl of 20 μg/ml) was then added into the homogenate as an internal standard. Acetonitrile was used to precipitate the proteins twice, and gemcitabine content in the supernatant was analyzed using HPLC. […] Therefore, it appeared that Gem-DHA preferred to distribute in pancreatic tissues.

IC50 (Panc-02 cells): 4 ± 1.5 nM
IC50 (BxPC-3 cells [4]): 18.5 ± 14.5 nM
Percent of injected compound recovered in each gram of pancreas [7]: 0.07±0.03%
Compound: Nc1ccn([C@@H]2O[C@H](CO)[C@@H](O)C2(F)F)c(=O)n1 [Gemcitabine HCl, 2′, 2′-difluorodeoxycytidine, reference compound]
IC50 (BxPC-3 cells [1]): 5.52 ± 4.55 nM
Control of tumor growth (tumor weight) (Panc-1-Luc tumors [2]): did not reveal any significant difference
Cytotoxicity after 4 h of co-incubation (Panc-02 tumor cells): did not show any significant cytotoxicity
Improvement in median survival duration ([3]; patients with advanced pancreatic cancer): 5 week
12-month survival ([3]; standard care for advanced pancreatic cancer): 18%
Average tumor weight at the end of the study (Panc-1-Luc tumors [5]; 30 days after first treatment, versus untreated): not significantly different from that in mice that were left untreated
Inhibition of growth of Panc-1-Luc tumors (Panc-1-Luc tumors [5]; i.p., ~0.087 mmole/kg (Gem-DHA 50 mg/kg, gemcitabine HCl 26.1 mg/kg), twice a week, 7 doses): did not significantly inhibit the growth
Cleaved lamin-A positive staining in tumors (Panc-1-Luc tumors [5]; versus untreated mice): not different from that in mice that were not treated
Micro-vessel density (MVD) in tumors, anti-CD-31 staining (Panc-1-Luc tumors [5]; versus untreated mice): not different from that in mice that were not treated
Fraction deaminated to dFdU [6]: over 90%
IC50 (MIA PaCa-2 cells): 50.2 ± 3 nM
